Entries after “also recorded” stand apart in the source; their conditions may differ. Where two headings read alike, the source gives them in different places.

The target in assay [1] is T1, WT CB2 (Homo sapiens, UniProt P34972).
T1 construct: expressed in transfected cells; host or cells: HEK293
Description: pGlo-Sensor-22F cAMP accumulation assay, WT CB2. It is filed as cell-based. To be noted: for EC50: agonist dose-response on CB2, vehicle control (no Ec2la), read-out: pEC50/pIC50 values (converted). The source says:
Compounds were drawn using ChemDraw.

Another assay has as its target CB2 mutant M157A (Homo sapiens, UniProt P34972, M157A). Description: cAMP accumulation assay, CB2 mutant M157A. To be noted: in the presence of JWH133. (In general: Cyclic AMP is a second messenger, typically raised through Gs and lowered through Gi signalling.)
For the next assay, the target named is CB2 mutant I129A (Homo sapiens, UniProt P34972, I129A). Description: cAMP accumulation assay, CB2 mutant I129A. The conditions noted are these: in the presence of JWH133.
Chain of CB2 mutant I129A (P34972 whole entry I129A): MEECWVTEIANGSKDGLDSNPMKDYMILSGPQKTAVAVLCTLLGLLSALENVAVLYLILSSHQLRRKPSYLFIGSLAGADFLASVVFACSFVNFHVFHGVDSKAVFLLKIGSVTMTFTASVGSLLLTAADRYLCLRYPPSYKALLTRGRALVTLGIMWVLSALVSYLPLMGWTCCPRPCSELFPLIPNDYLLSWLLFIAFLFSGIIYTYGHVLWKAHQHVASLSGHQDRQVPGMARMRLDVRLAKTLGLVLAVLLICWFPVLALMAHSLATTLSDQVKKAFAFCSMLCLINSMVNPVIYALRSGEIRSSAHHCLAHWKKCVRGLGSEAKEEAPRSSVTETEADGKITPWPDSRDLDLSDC
For the next assay, the target named is CB2 mutant L126A (Homo sapiens, UniProt P34972, L126A). Description: cAMP accumulation assay, CB2 mutant L126A. The conditions noted are these: in the presence of JWH133.
Chain of CB2 mutant L126A (P34972 whole entry L126A): as the sequence (P34972 whole entry I129A) above, with L126A, A129I counted along it
The target in another assay is CB2 mutant F197A (Homo sapiens, UniProt P34972, F197A). As to the kind of experiment: cAMP accumulation assay, CB2 mutant F197A. To be noted: in the presence of JWH133.
Chain of CB2 mutant F197A (P34972 whole entry F197A): as the sequence (P34972 whole entry I129A) above, with A129I, F197A counted along it
A further assay has as its target CB2 mutant L160A (Homo sapiens, UniProt P34972, L160A). As to the kind of experiment: cAMP accumulation assay, CB2 mutant L160A. To be noted: in the presence of JWH133.
The target of a further assay is CB2 mutant T153A (Homo sapiens, UniProt P34972, T153A). As to the kind of experiment: cAMP accumulation assay, CB2 mutant T153A. To be noted: in the presence of JWH133.
Chain of CB2 mutant T153A (P34972 whole entry T153A): as the sequence (P34972 whole entry I129A) above, with A129I, T153A counted along it
For a further assay, the target named is CB2 mutant L125A (Homo sapiens, UniProt P34972, L125A). As to the kind of experiment: cAMP accumulation assay, CB2 mutant L125A. To be noted: in the presence of JWH133.
Chain of CB2 mutant L125A (P34972 whole entry L125A): as the sequence (P34972 whole entry I129A) above, with L125A, A129I counted along it
Assay [2] relates to CB1 receptor. More on the design: method as in PMID 22343625. To be noted: cited from earlier work.
The subject of assay [3] is CB1 receptor. More on the design: method as in PMID 22343625. The conditions noted are these: CB1, in the presence of orthosteric ligand CP 55,940; cited from earlier work.
For assay [4], the target named is T1, WT CB2. Description: AlphaLISA SureFire Ultra p-ERK 1/2 assay, WT CB2. It is filed as cell-based. The conditions noted are these: 1 μM JWH133 + 10 μM Ec2la. The procedure: (§1) Culture media were removed and replaced with allosteric modulator (45 μL/well) prepared in serum-free DMEM and incubated (RT, 30 min). The cells were then stimulated with agonist (5 μL/well) prepared in serum-free DMEM and incubated (RT, 10 min). All subsequent reagents were used from the AlphaLISA SureFire Ultra p-ERK 1/2 (Thr202/Tyr204) Assay Kit (PerkinElmer). The medium was removed, freshly prepared 1× lysis buffer (50 μL/well) was added, and the plate was agitated on a plate shaker (RT, 10 min, 350 rpm). The lysates (10 μL) were transferred to a 384-well OptiPlate (PerkinElmer), and the acceptor mix (5 μL) was added to each well under subdued light. The plate was sealed, covered with foil, and incubated (RT, 1 h). Donor mix (5 μL) was added to each well under subdued light. The plate was sealed, covered with foil, and incubated in the dark (RT, 1 h). The plate was read using CLARIOstar Plus Plate Reader (BMG LabTech, Germany) using standard AlphaLISA settings with an […].

The subject of a further assay is CB2 single mutants. Description: AlphaLISA SureFire Ultra p-ERK 1/2 assay, CB2 single mutants. The conditions noted are these: 1 μM JWH133 + 10 μM Ec2la. It is filed as cell-based, human. The procedure:
as §1

The next assay relates to CB2 double mutants. As to the kind of experiment: AlphaLISA SureFire Ultra p-ERK 1/2 assay, CB2 double mutants. It is filed as cell-based, human. To be noted: 1 μM JWH133 + 10 μM Ec2la. The procedure:
as §1
For orientation: Bead proximity is the source of the signal in Alpha formats.

The next assay deals with CB1. More on the design: method as in PMID 29990428. The conditions noted are these: CB1, Chinese hamster ovary cells; cited from earlier work.
In assay [5] the test system is CB2. Set-up: method as in PMID 29990428. To be noted: CB2, Chinese hamster ovary cells; cited from earlier work.
Assay [6] concerns CB2. More on the design: method as in PMID 29990428. To be noted: agonists CP 55,940 and 2-AG; cited from earlier work.
The target of a further assay is CB2 mutant F72A (Homo sapiens, UniProt P34972, F72A). As to the kind of experiment: cAMP accumulation assay, CB2 mutant F72A. To be noted: in the presence of JWH133.
Chain of CB2 mutant F72A (P34972 whole entry F72A): as the sequence (P34972 whole entry I129A) above, with F72A, A129I counted along it
A further assay has as its target CB2 mutant L133A (Homo sapiens, UniProt P34972, L133A). As to the kind of experiment: cAMP accumulation assay, CB2 mutant L133A. To be noted: in the presence of JWH133.
A further assay deals with CB2 mutant L201A (Homo sapiens, UniProt P34972, L201A). As to the kind of experiment: cAMP accumulation assay, CB2 mutant L201A. The conditions noted are these: in the presence of JWH133.
Chain of CB2 mutant L201A (P34972 whole entry L201A): as the sequence (P34972 whole entry I129A) above, with A129I, L201A counted along it

T1 sequence (P34972 whole entry): as the sequence (P34972 whole entry I129A) above, with A129I counted along it
Chain of CB2 mutant M157A (P34972 whole entry M157A): as the sequence (P34972 whole entry I129A) above, with A129I, M157A counted along it
Chain of CB2 mutant L160A (P34972 whole entry L160A): as the sequence (P34972 whole entry I129A) above, with A129I, L160A counted along it
Chain of CB2 mutant L133A (P34972 whole entry L133A): as the sequence (P34972 whole entry I129A) above, with A129I, L133A counted along it
Description for CB2 mutant F197A: (§2) Primers were designed for the following mutations: F72^2.42A, L125^3.44A, L126^3.45A, I129^3.48A, L133^3.52A, T153^4.45A, I156^4.48A, M157^4.49A, L160^4.52A, F197^5.46A, and L201^5.50A (Table S3). Polymerase chain reactions (PCR) using the Bio-Rad T100TM Thermal Cycler and Applied Biosystems Veriti 96 Well Thermal Cycler to introduce the desired mutations within 3× HA-CB2 (cDNA).
(§3) HEK293 (ATCC CRL-1573) adherent cells were passaged using Dulbecco’s Modified Eagle’s Medium (DMEM)-high glucose (Sigma-Aldrich). This DMEM was supplemented with penicillin (100 U/mL), streptomycin (100 μg/mL), and heat inactivated fetal bovine serum (FBS, 10%) (PAN-Biotech). […]
(§4) After 24 h of incubation, the transfected HEK293 cells were then subject to starvation (2 h) with serum-free DMEM (100 μL/well). […] Bioluminescence was then measured using the CLARIOstar Plus Plate Reader (BMG LabTech, Germany). Prior to injecting the treatment ligands, approximately 5–10 basal readings were performed until stabilization was reached. Bioluminescence was measured for a total of 45 cycles (1 min per cycle, 1 s integration time, without filter, a fixed gain of 3000 and autofocus).
(§5) Data from signaling experiments were analyzed using GraphPad Prism, version 9.4.1 software (GraphPad Software, Inc.). […]
Description for CB2 mutant F72A: as §2, §3, §4, §5
Description for CB2 mutant I129A: as §2, §3, §4, §5
Description for CB2 mutant L125A: as §2, §3, §4, §5
Description for CB2 mutant L126A: as §2, §3, §4, §5
Description for CB2 mutant L133A: as §2, §3, §4, §5
Description for CB2 mutant L160A: as §2, §3, §4, §5
Description for CB2 mutant L201A: as §2, §3, §4, §5
Description for CB2 mutant M157A: as §2, §3, §4, §5
Description for CB2 mutant T153A: as §2, §3, §4, §5

Regarding `C=C(C)[C@@H]1CCC(C)=C[C@H]1c1c(O)cc(CCCCC)cc1O` [CBD, Cannabidiol], on WT CB2 [1], the “allosteric effect on cAMP signaling” value is “acts as a NAM”. In addition, the “orthosteric activity in cAMP assay” value at WT CB2 [1] is recorded as “acting as an agonist”. The “allosteric signal in cAMP assay” value at CB2 mutant M157A is listed as “loss and/or alteration in the allosteric signal”; at CB2 mutant I129A it was “loss and/or alteration in the allosteric signal”; at CB2 mutant L126A it was “loss and/or alteration in the allosteric signal”; on CB2 mutant F197A, “loss and/or alteration in the allosteric signal”; on CB2 mutant L160A, “still demonstrating an allosteric effect”; on CB2 mutant T153A, “still demonstrating an allosteric effect”. The “allosteric signal in cAMP assay” value at CB2 mutant L125A is listed as “loss and/or alteration in the allosteric signal”.

As for `CCc1c(C(=O)NCCc2ccc(N3CCCCC3)cc2)[nH]c2ccc(Cl)cc12` [ORG27569], the “allosteric effect in ERK 1/2 signaling” value in the assay with CB1 receptor [2] was “positive allosteric effect”. In the assay on CB1 receptor [3], the “allosteric effect with radioligand binding” value is on record as “negative allosteric effect”.

Turning to `CCCCC/C=C\C/C=C\C/C=C\C/C=C\CCCC(=O)OC(CO)CO` [2-AG, 2-arachidonoylglycerol], the EC50 is 48.3 nM on WT CB2 [1] (Figure S2) and 202 nM on WT CB2 [1] (Figure S3).

Take `Cc1c(Br)cn(Cc2ccc(F)cc2)c(=O)c1NC(=O)C1CCCCCC1` [Ec2la]: the “allosteric effect on cAMP signaling” value on WT CB2 [1] is “possible PAM-antagonistic effect; also recorded: acts as a PAM”; at WT CB2 [1] (WT CB2, in the presence of 2-AG, Ec2la 1 and 10 μM), “negative allosteric effect; also recorded: negative allosteric shift”; at WT CB2 [1] (WT CB2, in the presence of CP 55,940, Ec2la 1 and 10 μM), “slight negative allosteric effect; also recorded: negative allosteric shift”; on WT CB2 [1] (WT CB2, in the presence of JWH133, modulator 0.1, 1, 10 μM) it was “acts like a NAM”. The “allosteric effect on cAMP signaling at nanomolar concentrations” value at WT CB2 [1] was “did not demonstrate an allosteric effect; also recorded: no allosteric effect”. Moreover, the “allosteric effect on p-ERK 1/2 signaling” value was “acts as a NAM” on WT CB2 [4], “either no effect or an increase in the p-ERK 1/2 signal” in the assay with CB2 single mutants and “either no effect to the allosteric modulator-induced changes on the signal or a slight decrease in the signal” in the assay with CB2 double mutants. Further, the “modality in [3H]CP 55,940 binding studies” value with CB1 and with CB2 [5] was “PAM” in each case. Also, the “effect on agonist-stimulated [35S]GTPγS binding” value in the assay on CB2 [6] is on record as “greatly enhanced”. In addition, the “allosteric signal in cAMP assay” value on CB2 mutant F72A, on CB2 mutant M157A, on CB2 mutant I129A, at CB2 mutant L126A, on CB2 mutant F197A and on CB2 mutant L160A was “loss and/or alteration in allosteric signal” each time. For the same compound, the “allosteric signal in cAMP assay” value is recorded as “loss and/or alteration in allosteric signal” at CB2 mutant L133A, “still demonstrating an allosteric effect” on CB2 mutant T153A, “still demonstrating an allosteric effect” on CB2 mutant L201A and “still demonstrating an allosteric effect” on CB2 mutant L125A.

The values are drawn from publication PMC11833715, “Identification of a Cannabinoid Receptor 2 Allosteric Site Using Computational Modeling and Pharmacological Analysis” (ACS Pharmacology & Translational Science, 2025).
